Source: PubChem BioAssay (NCI)
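Method: 48-hour compound exposure of cells in 96-well plates, five concentrations, linear interpolation of endpoints. TGI marks complete inhibition of growth.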

Tested on: SNB-75 CNS
Assay: NCI anticancer screen, dose series, 48 h

Row | Compound | TGI [µM]
1 | COc1cc(OC)c2nc(C)c(CCCl)c(Cl)c2c1 | > 100
2 | COc1cc(Nc2nc3ccccc3nc2C(=O)O)cc(OC)c1OC | > 100
3 | O=[N+]([O-])c1cccc(C2=NN(c3ccccc3)C[N+](c3ccc(Br)cc3)=N2)c1 | > 100

Tested on: UACC-62 melanoma
Assay: NCI anticancer screen, dose series, 48 h

Row | Compound | TGI [µM]
4 | O=[N+]([O-])C[C@@]12O[C@]3(O)C4C5CC(C6C5C3C61)C42 (stereo not given in full) | > 100
5 | Cc1ccc(/C=N/Nc2cc(C)c3cccc(C)c3n2)s1 | 43.6
6 | Cc1c2n(c(=O)[nH]c1=O)C1OC(CO)C(O2)C1O (stereo not given) | > 100
7 | CN(CCSCCN(C)C(=O)OC(C)(C)C)C(=O)OC(C)(C)C | > 100
8 | CC1(C)/C(=N\NC(N)=O)C2CCC1C2 (stereo not given) | > 100
9 | CO[C@@]12C[C@@H](C)C3=CCC(C)=C3CC1=C(C)C(=O)O2 | > 100
10 | CC1(C)[C@@H](Cn2ccc(=O)[nH]c2=O)CC[C@@]1(C)CO | > 100
11 | O=C1/C(=C/c2ccc(Br)s2)NC(=S)N1c1ccccc1 | > 100
12 | CC(C)(C)OC(=O)N(CCCCN(CCCNC(=O)C(F)(F)F)C(=O)OC(C)(C)C)CCCNC(=O)C(F)(F)F | > 100
13 | C=CCCON(C(=O)OC(C)(C)C)C(C)(C)C | > 100
14 | CCOC(=O)Nc1[nH]cc(-c2ccccc2)c1C#N | > 100
15 | [N-]=[N+]=NC1(Cc2ccccc2)C(=O)c2cccc3c2N(CCC3)C1=O (stereo not given) | > 100
16 | O=c1oc2ccccc2cc1-c1cc2ccccn2c1 | > 100
17 | COC(=O)c1c(O)ccc2c1c1c(n2Cc2cc(OC)cc(OC)c2)C(=O)c2ccccc2C1 | > 100
18 | O=C(N/N=C(\c1ccccc1)c1ccccn1)NC1CCCCC1 | > 100
19 | CC(=O)CCn1c(=S)sc2ccccc21 | > 100
20 | NC(N)=NCCN1CC2CCC(CC2)C1 | > 100
21 | COc1cc(OC)c2nc(C)c(CCCl)c(Cl)c2c1 | > 100
22 | O=[N+]([O-])c1cccc(C2=NN(c3ccccc3)C[N+](c3ccc(Br)cc3)=N2)c1 | > 100

Tested on: COLO 205 colon
Assay: NCI anticancer screen, dose series, 48 h

Row | Compound | TGI [µM]
23 | O=[N+]([O-])C[C@@]12O[C@]3(O)C4C5CC(C6C5C3C61)C42 (stereo not given in full) | > 100
24 | Cc1ccc(/C=N/Nc2cc(C)c3cccc(C)c3n2)s1 | 28.7
25 | CO/N=C(\C(=O)OC(=NC1CCCCC1)NC1CCCCC1)c1csc(NC(c2ccccc2)(c2ccccc2)c2ccccc2)n1 | > 10
26 | Cc1c2n(c(=O)[nH]c1=O)C1OC(CO)C(O2)C1O (stereo not given) | > 100
27 | CN(CCSCCN(C)C(=O)OC(C)(C)C)C(=O)OC(C)(C)C | > 100
28 | CC1(C)/C(=N\NC(N)=O)C2CCC1C2 (stereo not given) | > 100
29 | CO[C@@]12C[C@@H](C)C3=CCC(C)=C3CC1=C(C)C(=O)O2 | > 100
30 | CC1(C)[C@@H](Cn2ccc(=O)[nH]c2=O)CC[C@@]1(C)CO | > 100
31 | O=C1/C(=C/c2ccc(Br)s2)NC(=S)N1c1ccccc1 | > 100
32 | CC(C)(C)OC(=O)N(CCCCN(CCCNC(=O)C(F)(F)F)C(=O)OC(C)(C)C)CCCNC(=O)C(F)(F)F | > 100
33 | C=CCCON(C(=O)OC(C)(C)C)C(C)(C)C | > 100
34 | CCOC(=O)Nc1[nH]cc(-c2ccccc2)c1C#N | > 100
35 | [N-]=[N+]=NC1(Cc2ccccc2)C(=O)c2cccc3c2N(CCC3)C1=O (stereo not given) | > 100
36 | O=c1oc2ccccc2cc1-c1cc2ccccn2c1 | > 100
37 | COC(=O)c1c(O)ccc2c1c1c(n2Cc2cc(OC)cc(OC)c2)C(=O)c2ccccc2C1 | 26
38 | O=C(N/N=C(\c1ccccc1)c1ccccn1)NC1CCCCC1 | > 100
39 | CC(=O)CCn1c(=S)sc2ccccc21 | > 100
40 | NC(N)=NCCN1CC2CCC(CC2)C1 | > 100
41 | COc1cc(OC)c2nc(C)c(CCCl)c(Cl)c2c1 | > 100
42 | COc1cc(Nc2nc3ccccc3nc2C(=O)O)cc(OC)c1OC | > 100
43 | O=[N+]([O-])c1cccc(C2=NN(c3ccccc3)C[N+](c3ccc(Br)cc3)=N2)c1 | > 100

Tested on: HL-60(TB) leukemia
Assay: NCI anticancer screen, dose series, 48 h

Row | Compound | TGI [µM]
44 | O=[N+]([O-])C[C@@]12O[C@]3(O)C4C5CC(C6C5C3C61)C42 (stereo not given in full) | > 100
45 | CO/N=C(\C(=O)OC(=NC1CCCCC1)NC1CCCCC1)c1csc(NC(c2ccccc2)(c2ccccc2)c2ccccc2)n1 | > 10
